# Results taken from patent publication US10947252B2, “Inhibitors of KEAP1-Nrf2 protein-protein interaction” (Janssen Pharmaceutica NV, priority 2018, dated 2021).
# How the values were obtained:
# [1] = biological target: Kelch domain of human KEAP1 (321-624 aa) (Homo sapiens (Human), UniProt Q14145); assay: KEAP1 KELCH ThermoFluor binding assay; conditions: KEAP Kelch […], 1,8-ANS, pH 7.0, average of results obtained, read-out: Tf Kd;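 note: Ligand-induced melting temperature shift of E. coli-expressed KEAP1 Kelch protein, Kd estimated from concentration-response curves of ΔTm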
# Chain of Kelch domain of human KEAP1 (321-624 aa) (Q14145 321-624): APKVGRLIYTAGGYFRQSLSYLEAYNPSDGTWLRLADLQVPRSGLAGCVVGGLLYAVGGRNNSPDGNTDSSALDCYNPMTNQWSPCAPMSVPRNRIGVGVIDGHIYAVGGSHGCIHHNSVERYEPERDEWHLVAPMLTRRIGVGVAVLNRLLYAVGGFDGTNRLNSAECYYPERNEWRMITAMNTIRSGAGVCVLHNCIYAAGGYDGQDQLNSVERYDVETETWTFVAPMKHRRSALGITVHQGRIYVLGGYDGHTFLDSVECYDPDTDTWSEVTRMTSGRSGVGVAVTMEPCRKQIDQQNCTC
# [2] = system: Glo-Response ARE-luc2P HEK293 cell line; assay: ARE luciferase reporter cell-based assay; conditions: Homo sapiens, HEK293, 24 h, average of results obtained;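 note: luciferase signal tracks Nrf2 activation of the ARE once compounds disrupt KEAP1-Nrf2 binding, read with One-Glo reagent, DMSO serving as low control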
Kd [1] [nM],SMILES,EC50 [2] [nM]
< 1,"CCn1nnc2c(C)c([C@H](CC(=O)O)c3ccc(C)c(CN4CC5(CC5)Oc5ncccc5S4(=O)=O)n3)ccc21 (single isomer, unassigned) [Example 244, (*S)-3-(6-((1′,1′-Dioxidospiro[cyclopropane-1,4′-pyrido[2,3-b][1,4,5]oxathiazepin]-2′(3′H)-yl)methyl)-5-methylpyridin-2-yl)-3-(1-ethyl-4-methyl-1H-benzo[d][1,2,3]triazol-5-yl)propanoic Acid]",35
1.9,"CCn1nnc2c(C)c([C@@H](CC(=O)O)c3ccc(C)c(CN4CC5(COC5)Oc5ccccc5S4(=O)=O)n3)ccc21 (single isomer, unassigned) [Example 239, (*R)-3-(6-((1,1-Dioxidospiro[benzo[b][1,4,5]oxathiazepine-4,3′-oxetan]-2(3H)-yl)methyl)-5-methylpyridin-2-yl)-3-(1-ethyl-4-methyl-1H-benzo[d][1,2,3]triazol-5-yl)propanoic Acid]",44
< 1,"CC[C@@H]1CN(Cc2cc(C(CC(=O)O)c3ccn4c(C(F)F)nnc4c3C)ccc2C)S(=O)(=O)c2cccnc2O1 (mixture of isomers) [Example 463, 3-(3-(Difluoromethyl)-8-methyl-[1,2,4]triazolo[4,3-a]pyridin-7-yl)-3-(3-(((R)-4-ethyl-1,1-dioxido-3,4-dihydro-2H-pyrido[2,3-b][1,4,5]oxathiazepin-2-yl)methyl)-4-methylphenyl)propanoic Acid]",27.6
12800,"Cc1ccc([C@H](c2ccn3c(C(F)F)nnc3c2C)C(C)(C)C(=O)O)nc1CN1CC2(COC2)Oc2ncccc2S1(=O)=O (single isomer, unassigned) [Example 611, (*R)-3-(3-(Difluoromethyl)-8-methyl-[1,2,4]triazolo[4,3-a]pyridin-7-yl)-3-(6-((1′,1′-dioxidospiro[oxetane-3,4′-pyrido[2,3-b][1,4,5]oxathiazepin]-2′(3′H)-yl)methyl)-5-methylpyridin-2-yl)-2,2-dimethylpropanoic Acid]",574

# Second part, the molecule before the results:
SMILES,Kd [1] [nM],EC50 [2] [nM]
"Cc1ccc([C@@H](CC(=O)O)c2ccn3c(C(F)F)nnc3c2C)cc1CN1C[C@H]2CCCCN2c2ncc(C#N)cc2S1(=O)=O (single isomer, unassigned) [Example 30, (*R)-3-(3-(((*R)-3-Cyano-5,5-dioxido-7,7a,8,9,10,11-hexahydro-6H-dipyrido[2,1-d:2′,3′-f][1,2,5]thiadiazepin-6-yl)methyl)-4-methylphenyl)-3-(3-(difluoromethyl)-8-methyl-[1,2,4]triazolo[4,3-a]pyridin-7-yl)propanoic Acid]",< 1,73.7
"COc1ccc2c(n1)OC1(CCOCC1)CN(Cc1cc([C@H](c3ccn4c(C(F)F)nnc4c3C)C(C)(C)C(=O)O)ccc1C)S2(=O)=O (single isomer, unassigned) [Example 583, (*R)-3-(3-(Difluoromethyl)-8-methyl-[1,2,4]triazolo[4,3-a]pyridin-7-yl)-3-(3-((7′-methoxy-1′,1′-dioxido-2,3,5,6-tetrahydrospiro[pyran-4,4′-pyrido[2,3-b][1,4,5]oxathiazepin]-2′(3′H)-yl)methyl)-4-methylphenyl)-2,2-dimethylpropanoic Acid]",1610,766
"Cc1ccc([C@@H](CC(=O)O)c2ccn3c(C(F)F)nnc3c2C)cc1CN1C[C@@H]2CCCCN2c2ncc(C#N)cc2S1(=O)=O (single isomer, unassigned) [Example 29, (*R)-3-(3-(((*S)-3-Cyano-5,5-dioxido-7,7a,8,9,10,11-hexahydro-6H-dipyrido[2,1-d:2′,3′-f][1,2,5]thiadiazepin-6-yl)methyl)-4-methylphenyl)-3-(3-(difluoromethyl)-8-methyl-[1,2,4]triazolo[4,3-a]pyridin-7-yl)propanoic Acid]",< 1,50.9
